Results reported in publication PMC9093745, “Carbohydrate Metabolism in Bacteria: Alternative Specificities in ADP-Glucose Pyrophosphorylases Open Novel Metabolic Scenarios and Biotechnological Tools” (Frontiers in Microbiology, 2022).

Tests used:
Format in all cases: biochemical
[1] = target: T1, R. fascians ADP-Glc PPase (Rhodococcoides fascians, UniProt A0A143QED7); experiment: activation of ADP-Glc synthesis, malachite green Pi release; conditions: allosteric activator; Glc-1P and ATP as substrates, Mg2+, pH 8.0, 37°C
T1 construct: gene glgC; recombinant in E. coli BL21 (DE3), His-tagged, IMAC purified; actinobacterial enzyme is a GlgC tetramer
T1 sequence (A0A143QED7 1-404): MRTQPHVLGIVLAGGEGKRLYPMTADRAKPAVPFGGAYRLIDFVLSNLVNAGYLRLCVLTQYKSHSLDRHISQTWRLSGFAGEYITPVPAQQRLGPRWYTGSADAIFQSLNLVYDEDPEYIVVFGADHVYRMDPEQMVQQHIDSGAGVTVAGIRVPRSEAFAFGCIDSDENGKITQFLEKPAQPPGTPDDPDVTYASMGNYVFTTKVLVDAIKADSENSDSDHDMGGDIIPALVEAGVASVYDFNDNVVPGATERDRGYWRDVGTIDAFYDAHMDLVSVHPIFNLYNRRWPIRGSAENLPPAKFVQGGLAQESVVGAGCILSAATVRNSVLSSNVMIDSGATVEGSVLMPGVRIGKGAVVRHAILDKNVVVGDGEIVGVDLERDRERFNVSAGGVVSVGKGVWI

[2] = target: T2, A. tumefaciens ADP-Glc PPase (Agrobacterium tumefaciens, UniProt P39669); experiment: saturation curve, malachite green Pi release coupled to pyrophosphatase; conditions: ATP co-substrate, Mg2+, pH 8.0, 37°C
T2 construct: gene glgC; recombinant in E. coli; proteobacterial enzyme is a GlgC homotetramer
T2 sequence (P39669 1-420): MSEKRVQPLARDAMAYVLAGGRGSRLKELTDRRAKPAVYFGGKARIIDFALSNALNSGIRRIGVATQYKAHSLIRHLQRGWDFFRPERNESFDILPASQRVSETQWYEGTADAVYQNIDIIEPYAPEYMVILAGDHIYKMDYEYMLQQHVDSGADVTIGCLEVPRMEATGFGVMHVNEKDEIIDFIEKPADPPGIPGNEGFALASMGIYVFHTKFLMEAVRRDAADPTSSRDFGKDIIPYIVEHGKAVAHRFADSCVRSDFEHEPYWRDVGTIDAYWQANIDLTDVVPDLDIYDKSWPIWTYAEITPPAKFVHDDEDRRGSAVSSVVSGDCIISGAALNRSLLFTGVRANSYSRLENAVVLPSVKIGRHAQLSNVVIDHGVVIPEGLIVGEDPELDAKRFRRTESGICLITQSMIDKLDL

[3] = target: T2, A. tumefaciens ADP-Glc PPase; experiment: effect on ADP-Glc synthesis, malachite green Pi release; conditions: allosteric effector, lowers activity; Glc-1P and ATP as substrates, Mg2+, pH 8.0, 37°C
[4] = target: T3, K. rhizophila ADP-Glc PPase (Kocuria rhizophila, UniProt B2GHR6); experiment: activation curve, malachite green Pi release coupled to pyrophosphatase; conditions: allosteric activator (Vmax 4-fold); Glc-1P and ATP as substrates, Mg2+, pH 8.0, 37°C; read-out: A0.5
T3 construct: gene glgC; recombinant in E. coli BL21 (DE3), His-tagged, IMAC purified; actinobacterial enzyme is a GlgC tetramer
T3 sequence (B2GHR6 1-414): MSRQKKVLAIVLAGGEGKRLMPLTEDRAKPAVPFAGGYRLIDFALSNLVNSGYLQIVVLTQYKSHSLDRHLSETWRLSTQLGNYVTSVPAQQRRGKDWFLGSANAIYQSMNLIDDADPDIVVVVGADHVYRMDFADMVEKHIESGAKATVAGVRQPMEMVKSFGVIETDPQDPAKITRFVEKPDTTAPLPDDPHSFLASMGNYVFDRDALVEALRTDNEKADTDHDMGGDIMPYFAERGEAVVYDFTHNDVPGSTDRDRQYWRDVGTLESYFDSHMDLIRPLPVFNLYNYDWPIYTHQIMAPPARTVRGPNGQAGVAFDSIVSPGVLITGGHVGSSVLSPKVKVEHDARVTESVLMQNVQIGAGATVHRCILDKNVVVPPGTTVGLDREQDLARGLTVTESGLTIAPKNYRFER

[5] = target: T4, R. albus ADP-Glc PPase GlgC/GlgD (Hominimerdicola alba, UniProt E9SED8); experiment: activation of ADP-Glc synthesis, malachite green Pi release; conditions: allosteric activator; Glc-1P and ATP as substrates, Mg2+, pH 8.0, 37°C
T4 construct: recombinant in E. coli, IMAC purified; heterotetramer; with Glucose-1-phosphate adenylyltransferase, GlgD subunit
T4 sequence (E9SED8 1-400): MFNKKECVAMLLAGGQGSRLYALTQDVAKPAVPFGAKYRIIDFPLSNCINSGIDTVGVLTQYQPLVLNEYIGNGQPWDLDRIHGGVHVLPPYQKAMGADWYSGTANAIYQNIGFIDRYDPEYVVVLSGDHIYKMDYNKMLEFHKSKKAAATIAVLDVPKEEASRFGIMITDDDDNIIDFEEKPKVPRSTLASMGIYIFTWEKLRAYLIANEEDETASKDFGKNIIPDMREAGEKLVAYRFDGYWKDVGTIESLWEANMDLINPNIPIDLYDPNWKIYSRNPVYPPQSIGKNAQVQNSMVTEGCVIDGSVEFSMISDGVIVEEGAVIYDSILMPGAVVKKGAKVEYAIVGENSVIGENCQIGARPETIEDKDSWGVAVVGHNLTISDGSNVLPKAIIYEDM
T4 sequence (E9SED9 1-371 partner): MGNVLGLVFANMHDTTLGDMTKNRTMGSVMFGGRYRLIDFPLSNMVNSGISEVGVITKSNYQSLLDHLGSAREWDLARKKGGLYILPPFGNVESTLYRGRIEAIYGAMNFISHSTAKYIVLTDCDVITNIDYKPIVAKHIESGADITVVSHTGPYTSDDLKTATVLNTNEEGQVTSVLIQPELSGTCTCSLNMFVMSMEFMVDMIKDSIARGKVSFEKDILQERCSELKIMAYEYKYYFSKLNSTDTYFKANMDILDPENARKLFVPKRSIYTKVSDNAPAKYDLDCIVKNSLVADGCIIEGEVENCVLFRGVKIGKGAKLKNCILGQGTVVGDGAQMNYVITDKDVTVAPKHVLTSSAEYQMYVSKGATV

[6] = target: T5, R. albus ADP-Glc PPase GlgC (Hominimerdicola alba, UniProt E9SED8); experiment: as above; conditions: allosteric activator; Glc-1P and ATP as substrates, Mg2+, pH 8.0, 37°C
T5 construct: recombinant in E. coli, IMAC purified; homotetramer
T5 sequence (E9SED8 1-400): T4 sequence (E9SED8 1-400)

[7] = target: T6, S. coelicolor ADP-Glc PPase (Streptomyces coelicolor, UniProt P72394); experiment: activation curve, malachite green Pi release coupled to pyrophosphatase; conditions: allosteric activator (4-fold); Glc-1P and ATP as substrates, Mg2+, pH 8.0, 37°C; read-out: A0.5
T6 construct: gene glgC; recombinant in E. coli BL21 (DE3), His-tagged, IMAC purified; actinobacterial enzyme is a GlgC tetramer
T6 sequence (P72394 1-399): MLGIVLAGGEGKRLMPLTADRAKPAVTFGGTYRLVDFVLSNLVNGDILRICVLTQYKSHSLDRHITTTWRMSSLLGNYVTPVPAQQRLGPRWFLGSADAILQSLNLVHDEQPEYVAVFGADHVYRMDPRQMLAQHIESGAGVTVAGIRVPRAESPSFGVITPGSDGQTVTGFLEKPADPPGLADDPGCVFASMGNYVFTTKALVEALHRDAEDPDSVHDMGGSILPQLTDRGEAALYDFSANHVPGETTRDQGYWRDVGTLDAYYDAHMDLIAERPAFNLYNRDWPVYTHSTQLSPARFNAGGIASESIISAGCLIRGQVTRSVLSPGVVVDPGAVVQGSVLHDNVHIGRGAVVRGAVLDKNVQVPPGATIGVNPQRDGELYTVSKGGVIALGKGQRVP

Compound | fold activation [1] | Km [2] | % decrease of activity [3] | EC50 [4] [µM] | activation of ADP-Glc synthesis, malachite green Pi release [5] | activation of ADP-Glc synthesis, malachite green Pi release [6] | EC50 [7] [mM]
O=P(O)(O)OC[C@H]1OC(O)[C@H](O)[C@@H](O)[C@@H]1O (some centres unmarked) [Glc-6P] | ~ 8 fold |  |  |  |  |  | 
N[C@H]1[C@@H](OP(=O)(O)O)O[C@H](CO)[C@@H](O)[C@@H]1O [GlcN-1P] |  | The enzyme was active with GlcN-1P as a substrate |  |  |  |  | 
N[C@H]1C(O)O[C@H](COP(=O)(O)O)[C@@H](O)[C@@H]1O (some centres unmarked) [GlcN-6P] | ~ 8 fold |  | ~ 30% | 80 | both R. albus GlgC and GlgC/GlgD responded to GlcN-6P activation | both R. albus GlgC and GlgC/GlgD responded to GlcN-6P activation | 3.55 ± 0.52
